The term IC50 denotes the concentration that inhibits the measured activity by half. The low end stands for inhibition by little substance, the high end for a need for much substance.

Each structure is given as a SMILES string.

Results on four compounds are retold here after US20050037990A1, “Disubstituted 7,9-guanines halides as telomerase inhibitors” (priority 2001, published 2005).

In this assay the target is T1, telomerase enzyme (Homo sapiens, UniProt O14746).
T1 construct: telomerase enzyme diluted in a buffer
T1 sequence (O14746 whole entry): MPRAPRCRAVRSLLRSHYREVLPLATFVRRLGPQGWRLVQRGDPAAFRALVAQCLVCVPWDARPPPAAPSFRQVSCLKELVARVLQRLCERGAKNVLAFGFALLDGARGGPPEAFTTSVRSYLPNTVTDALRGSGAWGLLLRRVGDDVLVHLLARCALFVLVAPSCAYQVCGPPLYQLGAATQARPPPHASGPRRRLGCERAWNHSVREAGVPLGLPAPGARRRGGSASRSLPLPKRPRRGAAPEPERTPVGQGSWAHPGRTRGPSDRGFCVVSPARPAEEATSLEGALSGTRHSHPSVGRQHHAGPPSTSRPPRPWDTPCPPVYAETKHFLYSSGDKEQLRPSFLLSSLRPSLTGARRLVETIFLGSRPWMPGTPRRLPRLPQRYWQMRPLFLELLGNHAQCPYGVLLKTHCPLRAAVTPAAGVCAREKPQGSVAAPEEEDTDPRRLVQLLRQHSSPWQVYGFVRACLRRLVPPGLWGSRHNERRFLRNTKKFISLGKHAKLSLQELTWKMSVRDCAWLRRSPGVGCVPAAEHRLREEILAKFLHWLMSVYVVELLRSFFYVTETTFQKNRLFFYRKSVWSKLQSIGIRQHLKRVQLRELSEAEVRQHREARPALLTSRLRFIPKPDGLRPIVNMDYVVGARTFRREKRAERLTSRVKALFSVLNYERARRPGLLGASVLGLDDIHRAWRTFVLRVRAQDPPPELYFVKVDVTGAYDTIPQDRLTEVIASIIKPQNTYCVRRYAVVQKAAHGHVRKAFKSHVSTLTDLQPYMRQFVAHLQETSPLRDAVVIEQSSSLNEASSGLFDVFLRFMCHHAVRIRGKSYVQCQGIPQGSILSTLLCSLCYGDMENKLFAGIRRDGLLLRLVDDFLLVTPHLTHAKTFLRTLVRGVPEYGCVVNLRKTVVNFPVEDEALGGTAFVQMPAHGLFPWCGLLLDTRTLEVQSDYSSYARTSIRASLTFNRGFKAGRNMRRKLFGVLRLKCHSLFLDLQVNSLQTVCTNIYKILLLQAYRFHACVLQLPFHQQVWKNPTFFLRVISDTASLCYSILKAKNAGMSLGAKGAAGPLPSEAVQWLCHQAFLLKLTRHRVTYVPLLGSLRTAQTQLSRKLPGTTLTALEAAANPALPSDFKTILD
In words: Flash Plate-based telomerase assay. Type of assay: biochemical. The following applies: telomerase inhibition; two hours of incubation at 37°; Flash Plate hybridization readout. From the text: The telomerase activity of the compounds of the invention has been evaluated using a Flash Plate-based assay. […] Other methods for determining the inhibitory concentration of a compound of the invention against telomerase can be employed as will be apparent to a person skilled in the art based on the disclosure herein.
Briefly, the assay mixture is costituted by: • telomerase enzyme diluted in a buffer, the composition of which has been selected to maintain the enzyme activity stable along the duration of the assay. • dNTPs, deoxynucleotides 5′-triphosphate. • biotynilated oligo as primer. • increasing concentrations of test compounds/positive control.
After two hours of incubation at 37° degrees the telomeric repeats added are evaluated by hybridization in solution with a 3′-labeled short oligonucleotide probe.
The extent of hybridization is then quantitated by transferring the reaction mixture in a streptavidin-coated flash plate, where the binding between biotin and streptavidin occurs.
The telomerase activity is proportional to the radioactivity measured and the inhibitory activity of the compounds is evaluated as IC50 using the Sigma Plot fit program.
With the above-described method, IC50 values of the compounds of the present invention were determined.

`Nc1nc2c(c(=O)[nH]1)[n+](Cc1ccc3ccccc3c1)cn2Cc1ccc2ccccc2c1` [Compound 1, 2-amino-7,9-bis(2-naphthylmethyl)-6-oxo-6,9-dihydro-1H-purin-7-ium bromide] came in with an IC50 of 10 µM. This counts as double-digit micromolar.
`Nc1nc2c(c(=O)[nH]1)[n+](Cc1ccc(-c3ccccc3)cc1)cn2Cc1ccc(-c2ccccc2)cc1` [Compound 2, 2-amino-7,9-bis[(1,1′-biphenyl)-4-ylmethyl]-6-oxo-6,9-dihydro-1H-purin-7-ium bromide] came in with a concentration for half-maximal inhibition (IC50) of 3 µM. This IC50 is about 3.3-fold lower than that of the compound before.
Then `Nc1nc2c(c(=O)[nH]1)[n+](Cc1ccc(Cl)c(Cl)c1)cn2Cc1ccc(Cl)c(Cl)c1` [Compound 4, 2-amino-7,9-bis(3,4-dichlorobenzyl)-6-oxo-6,9-dihydro-1H-purin-7-ium bromide], with 10 µM; and `Nc1nc2c(c(=O)[nH]1)[n+](Cc1ccc(-c3ccccc3)cc1)cn2Cc1ccc2ccccc2c1` [Compound 7, 2-amino-7-([1,1′-biphenyl]-4-ylmethyl)-9-(2-naphthylmethyl)-6-oxo-6,9-dihydro-1H-purin-7-ium bromide], with 4 µM.
